Results: US20240067617A1 (Albireo AB, priority 2022, published 2024)

What was measured:
hLBAT = biological target: T1, hLBAT (Homo sapiens, UniProt Q14973); assay: LBAT (h/m) assay: 3H-taurocholic acid uptake in human LBAT-overexpressing cells; assay type: cell-based; conditions: 0.3 μM 3H-taurocholic acid + 7.5 μM cold taurocholic acid, 20 minutes at 37° C.
T1 construct: expressed in transfected cells; kept under Geneticin selection
T1 sequence (Q14973 1-349): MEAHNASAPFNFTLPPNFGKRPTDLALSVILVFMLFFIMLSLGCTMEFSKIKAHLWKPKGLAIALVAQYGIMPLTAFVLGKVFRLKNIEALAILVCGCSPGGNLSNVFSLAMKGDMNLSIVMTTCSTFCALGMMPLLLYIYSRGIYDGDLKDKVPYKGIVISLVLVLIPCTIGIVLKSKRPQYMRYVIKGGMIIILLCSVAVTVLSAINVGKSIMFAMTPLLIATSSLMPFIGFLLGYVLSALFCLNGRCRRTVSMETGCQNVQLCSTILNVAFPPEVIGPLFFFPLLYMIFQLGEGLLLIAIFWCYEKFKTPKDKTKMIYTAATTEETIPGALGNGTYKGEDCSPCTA
Experimental: LBAT (h/m) Assay Protocol
20,000 cells (Human or Mouse LBAT-overexpressing cells) were seeded in 96-wells plate (Corning CLS3809) in 100 μL MEM-alpha medium (Gibco 12571-063) supplemented with 10% FBS (Gibco 10438026) containing Geneticin (Gibco 10131-027) (1 mg/mL) and incubated at 37° C. in 5% CO2 for 24 hours. After incubation, media was decanted from the wells and cells were washed two times with 300 μL of basal MEM-alpha medium (FBS-free). After decanting basal MEM-alpha medium each time, plates were tapped against paper towel to ensure maximum removal of residual media. For human LBAT, incubation mix was prepared by adding test inhibitor dilutions (3-fold serial dilution in DMSO (Sigma D2650), 10 points) in MEM-alpha (without FBS) containing 0.3 μM 3H-taurocholic acid (ARC ART-1368) and 7.5 μM cold taurocholic acid (Sigma T4009) (maintaining 0.2% final DMSO concentration). For mouse LBAT, incubation mix was prepared by adding test inhibitor dilutions (3-fold serial dilution in DMSO, 10 points) in MEM-alpha (without FBS) containing 0.3 μM 3H-taurocholic acid and 25 μM cold taurocholic acid maintaining 0.2% final DMSO concentration). 50 μL of incubation mix containing test inhibitors was then added to the wells (in duplicate) and the plates were incubated for 20 minutes in a CO2 incubator at 37° C. After incubation, the reaction was stopped by keeping the plates on ice water mix for 2-3 minutes and then the incubation mix was aspirated completely from the wells. The wells were washed two times with 250 μL of chilled unlabelled 1 mM taurocholic acid dissolved in HEPES (Gibco 15630080)-buffered (10 mM) HBSS (Gibco 14175079) (pH 7.4). The plates were tapped against a paper towel after every wash to ensure maximum removal of blocking buffer.
100 μL of MicroScint-20 (PerkinElmer 6013621) was added to the wells and kept overnight at RT before reading the plates in TopCount NXT™ Microplate Scintillation and Luminescence Counter from PerkinElmer under 3H Test protocol (set at 120 seconds reading time per well, with normal plate orientation).
(§1) Preparation of Test Compound Dilutions
(§2) All test compounds were provided in powder form at RT. 10 mM DMSO stocks of the test compounds were prepared, aliquoted and stored at −20° C. From the 10 mM DMSO stock of the compounds, a 3-fold serial dilution in DMSO was prepared to get a total of 10 dilutions of the test compounds. 0.5 μL of this dilution in DMSO was added to 250 μL of FBS-free basal media containing 3H-taurocholic acid and cold taurocholic acid to prepare the incubation mixture.

hIBAT = biological target: T2, hIBAT (Homo sapiens, UniProt Q12908); assay: IBAT (h/m) assay: 3H-taurocholic acid uptake in human IBAT-overexpressing cells; assay type: cell-based; conditions: 0.25 μM 3H-taurocholic acid + 5 μM cold taurocholic acid, 20 minutes at 37° C., highest test concentration 10 μM
T2 construct: expressed in transfected cells; kept under Puromycin selection
T2 sequence (Q12908 1-348): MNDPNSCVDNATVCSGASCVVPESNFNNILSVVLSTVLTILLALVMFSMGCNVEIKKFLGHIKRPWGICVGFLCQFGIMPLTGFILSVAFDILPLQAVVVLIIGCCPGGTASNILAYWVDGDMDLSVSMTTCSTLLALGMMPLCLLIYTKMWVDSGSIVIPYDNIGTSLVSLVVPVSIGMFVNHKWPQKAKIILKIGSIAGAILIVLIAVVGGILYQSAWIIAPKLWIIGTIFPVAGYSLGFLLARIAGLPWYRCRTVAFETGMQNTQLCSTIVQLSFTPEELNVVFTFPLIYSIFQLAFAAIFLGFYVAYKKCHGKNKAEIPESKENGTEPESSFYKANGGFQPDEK
Experimental: IBAT (h/m) Assay Protocol
10,000 cells (Human or Mouse IBAT-overexpressing cells) were seeded in 96-wells plate (Corning CLS3809) in 200 μL MEM-alpha medium (Gibco 12571-063) supplemented with 10% FBS (Gibco 10438026) containing Puromycin (Gibco A1113803) (10 μg/mL) and incubated at 37° C. in 5% CO2 for 48 hours. After incubation, media was decanted from the wells and cells were washed two times with 300 μL of basal MEM-alpha medium (FBS-free). After decanting basal MEM-alpha medium each time, plates were tapped against paper towel to ensure maximum removal of residual media. Test inhibitor dilutions (highest test concentration being 10 μM, 3-fold serial dilution, 10 points) prepared in DMSO (Sigma D2650) were added in incubation mix (maintaining 0.2% final DMSO concentration) containing 0.25 μM 3H-taurocholic acid (ARC ART-1368) and 5 μM of cold taurocholic acid (Sigma T4009). 50 μL of incubation mix containing test inhibitors was then added to the wells (in duplicate) and the plates were incubated for 20 minutes in a CO2 incubator at 37° C. After incubation, the reaction was stopped by keeping the plates on ice water mix for 2-3 minutes and then the incubation mix was aspirated completely from the wells. The wells were washed two times with 250 μL of chilled unlabelled 1 mM taurocholic acid dissolved in HEPES (Gibco 15630080)-buffered (10 mM) HBSS (Gibco 14175079) (pH 7.4). The plates were tapped against a paper towel after every wash to ensure maximum removal of blocking buffer.
100 μL of MicroScint-20 (PerkinElmer 6013621) was added to the wells and kept overnight at RT before reading the plates in TopCount NXT™ Microplate Scintillation and Luminescence Counter from PerkinElmer under 3H Test protocol (set at 120 seconds reading time per well).
as §1, §2

## CCCCC1CN(c2ccc(F)cc2)c2cc(OC)c(CSCC(=O)O)cc2S(=O)(=O)N1C (racemic) [Example 29, 2-(((3-butyl-5-(4-fluorophenyl)-7-methoxy-2-methyl-1,1-dioxido-2,3,4,5-tetrahydro-1,2,5-benzothiadiazepin-8-yl)methyl)thio)acetic acid]
hLBAT
  IC50: 107 nM
hIBAT
  IC50: 558 nM

## CCCCC1(CC)CN(c2ccc(F)cc2)c2cc(OC)c(CSCC(=O)O)cc2S(=O)(=O)C1 (racemic) [Example 39, 2-(((3-butyl-3-ethyl-5-(4-fluorophenyl)-7-methoxy-1,1-dioxido-2,3,4,5-tetrahydro-1,5-benzothiazepin-8-yl)methyl)thio)acetic acid]
hLBAT
  IC50: > 3330 nM
hIBAT
  IC50: 2.5 nM

## CCCCC1(CC)CN(c2ccc(F)cc2)c2cc(SC)c(CSC(C)(C)C(=O)O)cc2S(=O)(=O)C1 (single isomer, unassigned) [16, enantiomer 2]
hLBAT
  IC50: 220 nM
hIBAT
  IC50: 659 nM

## CCCCC1(C)CN(c2ccccc2)c2cc(OC)c(CSC(C)(C)C(=O)O)cc2S(=O)(=O)C1 (single isomer, unassigned) [42, enantiomer 1]
hLBAT
  IC50: 223 nM
hIBAT
  IC50: 704 nM

## CCCCC1(CC)CN(c2ccc(F)cc2)c2cc(OC)c(CSC(C)(C)C(=O)O)cc2S(=O)(=O)C1 (single isomer, unassigned) [34, enantiomer 1]
hLBAT
  IC50: 110 nM
hIBAT
  IC50: 161 nM

## CCCCC1(CC)CN(c2ccc(F)cc2)c2cc(OC)c(CSCC(=O)O)cc2S(=O)(=O)C1 (single isomer, unassigned) [40, enantiomer 1]
hLBAT
  IC50: > 10000 nM
hIBAT
  IC50: 1.4 nM

## CCCCC1(C)CN(c2ccccc2)c2cc(OC)c(CSCC(=O)O)cc2S(=O)(=O)C1 (single isomer, unassigned) [28, enantiomer 2]
hLBAT
  IC50: > 10000 nM
hIBAT
  IC50: 532 nM

## CCCCC1(CCCC)CN(c2ccccc2)c2cc(SC)c(CSC(C)(C)C(=O)O)cc2S(=O)(=O)C1 [Example 17, 2-(((3,3-Dibutyl-7-(methylthio)-1,1-dioxido-5-phenyl-2,3,4,5-tetrahydro-1,5-benzothiazepin-8-yl)methyl)thio)-2-methylpropanoic acid]
hLBAT
  IC50: 216 nM
hIBAT
  IC50: 88 nM

## CCCCC1CN(c2ccccc2)c2cc(SC)c(CSCC(=O)O)cc2S(=O)(=O)N1C (single isomer, unassigned) [12, enantiomer 1]
hLBAT
  IC50: > 10000 nM
hIBAT
  IC50: 115 nM

## CCCCC1(CC)CN(c2ccccc2)c2cc(SC)c(CSCC(=O)O)cc2S(=O)(=O)N1 (racemic) [Example 9, 2-(((3-butyl-3-ethyl-7-(methylthio)-1,1-dioxido-5-phenyl-2,3,4,5-tetrahydro-1,2,5-benzothiadiazepin-8-yl)methyl)thio)acetic acid]
hLBAT
  IC50: > 3330 nM
hIBAT
  IC50: 0.5 nM

## CCCCC1(CC)CN(c2ccccc2)c2cc(SC)c(CSCC(=O)O)cc2S(=O)(=O)N1C (single isomer, unassigned) [21, enantiomer 1]
hLBAT
  IC50: 3310 nM
hIBAT
  IC50: > 243 nM

## CCCCC1(CC)CN(c2ccc(F)cc2)c2cc(SC)c(CSC(C)(C)C(=O)O)cc2S(=O)(=O)C1 (single isomer, unassigned) [16, enantiomer 1]
hLBAT
  IC50: 164 nM
hIBAT
  IC50: 10 nM

## CCCCC1(C)CN(c2ccccc2)c2cc(SC)c(CSCC(=O)O)cc2S(=O)(=O)C1 (racemic) [Example 4, 2-(((3-butyl-3-methyl-7-(methylthio)-1,1-dioxido-5-phenyl-2,3,4,5-tetrahydro-1,5-benzothiazepin-8-yl)methyl)thio)acetic acid]
hLBAT
  IC50: 7260 nM
hIBAT
  IC50: 0.8 nM

## CCCCC1(C)CN(c2ccccc2)c2cc(SC)c(CSCC(=O)O)cc2S(=O)(=O)N1 (centres unmarked) [Example 54, 2-(((3-Butyl-3-methyl-7-(methylthio)-1,1-dioxido-5-phenyl-2,3,4,5-tetrahydro-1,2,5-benzothiadiazepin-8-yl)methyl)thio)acetic acid]
hLBAT
  IC50: > 1000 nM
hIBAT
  IC50: 0.1 nM

## CCCCC1(CC)CN(c2ccc(F)cc2)c2cc(OC)c(CSC(C)(C)C(=O)O)cc2S(=O)(=O)C1 (racemic) [Example 33, 2-(((3-butyl-3-ethyl-5-(4-fluorophenyl)-7-methoxy-1,1-dioxido-2,3,4,5-tetrahydro-1,5-benzothiazepin-8-yl)methyl)thio)-2-methylpropanoic acid]
hLBAT
  IC50: 150 nM
hIBAT
  IC50: 295 nM

## CCCCC1CN(c2ccc(F)cc2)c2cc(OC)c(CSCC(=O)O)cc2S(=O)(=O)N1C (single isomer, unassigned) [30, enantiomer 1]
hLBAT
  IC50: > 10000 nM
hIBAT
  IC50: > 10000 nM

## CCCCC1CN(c2ccccc2)c2cc(SC)c(CSCC(=O)O)cc2S(=O)(=O)N1C (racemic) [Example 11, 2-(((3-butyl-2-methyl-7-(methylthio)-1,1-dioxido-5-phenyl-2,3,4,5-tetrahydro-1,2,5-benzothiadiazepin-8-yl)methyl)thio)acetic acid]
hLBAT
  IC50: 34 nM
hIBAT
  IC50: 70 nM

## CCCCC1CN(c2ccccc2)c2cc(OC)c(CSC(C)(C)C(=O)O)cc2S(=O)(=O)N1C (single isomer, unassigned) [38, enantiomer 1]
hLBAT
  IC50: 1130 nM
hIBAT
  IC50: > 10000 nM

## CCCCC1(CC)CN(c2ccccc2)c2cc(SC)c(CSCC(=O)O)cc2S(=O)(=O)C1 (single isomer, unassigned) [2, enantiomer 2]
hLBAT
  IC50: 3150 nM
hIBAT
  IC50: 2.8 nM

## CCCCC1(C)CN(c2ccccc2)c2cc(SC)c(CSC(C)(C)C(=O)O)cc2S(=O)(=O)C1 (single isomer, unassigned) [19, enantiomer 2]
hLBAT
  IC50: 176 nM
hIBAT
  IC50: 1870 nM

## CCCC[C@@H]1CN(c2ccccc2)c2cc(N(C)C)c(CSCC(=O)O)cc2S(=O)(=O)N1 [Example 49, (R)-2-(((3-butyl-7-(dimethylamino)-1,1-dioxido-5-phenyl-2,3,4,5-tetrahydro-1,2,5-benzothiadiazepin-8-yl)methyl)thio)acetic acid]
hLBAT
  IC50: 248 nM
hIBAT
  IC50: 2320 nM

## CCCCC1(CC)CN(c2ccccc2)c2cc(S(C)(=O)=O)c(CSCC(=O)O)cc2S(=O)(=O)N1 (single isomer, unassigned) [48, enantiomer 1]
hLBAT
  IC50: > 1000 nM
hIBAT
  IC50: 231 nM
